According to BindingDB's records for doi:10.1016/j.bmc.2010.09.053 (Umr Cnrs 7201, 2012):

Experiment: Inhibition of bovine liver beta-glucosidase

C[C@@H]1CNC[C@@H](O)[C@@H](O)[C@@H]1O
IC50: 244 µM
